Data taken from patent US9321764B2, “Dihydro-pyrrolopyridinone inhibitors” (AbbVie Inc., priority 2013, dated 2016).

Assays:
BRD4 (BDI_K57-E168) = molecular target: T1, BRD4 (BDI_K57-E168) (Homo sapiens, UniProt O60885); assay: TR-FRET bromodomain binding assay, first bromodomain of BRD4; settings: His-tagged BD1, 100 nM Alexa647 probe; TR-FRET protocol A-E given per row
T1 construct: BD1: amino acids K57-E168; made in house
Protocol: (§1) A time-resolved fluorescence resonance energy transfer (TR-FRET) assay was used to determine the affinities of compounds of the Examples listed in Table 1 for each bromodomain of BRD4. His-tagged first (BD1: amino acids K57-E168) and second (BD2: amino acids E352-E168) bromodomains of BRD4 were expressed and purified. An Alexa647-labeled BET-inhibitor was used as the fluorescent probe in the assay.
(§2) Compound dilution series were prepared in DMSO via an approximately 3-fold serial dilution from one of the following:
Assay method A: 250 μM-4.2 nM
Assay method B: 0.47 mM to 7.8 nM
Assay method C: 500 μM-8.5 nM
(§3) Assay method D: 2.5 mM-800 nM
Assay method E: 0.047 mM to 0.78 nM or 5-fold serial dilution from Assay method D
For Assay methods A, C, and D: Compounds were then diluted 6:100 in assay buffer (20 mM Sodium Phosphate, pH 6.0, 50 mM NaCl, 1 mM Ethylenediaminetetraacetic acid, 0.01% Triton X-100, 1 mM DL-Dithiothreitol) to yield 3× working solutions. Six microliters (μL) of the working solution was then transferred to white, low-volume assay plates (Costar #3673). A 1.5× assay mixture containing His-tagged bromodomain, Europium-conjugated anti-His antibody (Invitrogen PV5596) and the Alexa-647-conjugated probe molecule was also prepared. Twelve μL of this solution were added to the assay plate to reach a final volume of 18 μL.
For Assay methods B and E: Compound dilutions were added directly into white, low-volume assay plates (Perkin Elmer Proxiplate 384 Plus #6008280) using a Labcyte Echo in conjunction with Labcyte Access and Thermo Multidrop CombinL robotics. Compounds were then suspended in eight microliters (μL) of assay buffer (20 mM Sodium Phosphate, pH 6.0, 50 mM NaCl, 1 mM Ethylenediaminetetraacetic acid disodium salt dihydrate, 0.01% Triton X-100, 1 mM DL-Dithiothreitol) containing His-tagged bromodomain, Europium-conjugated anti-His antibody (Invitrogen PV5596) and Alexa-647-conjugated probe.
The final concentration of 1× assay mixture for assay methods A, B, C, D, and E contains 2% DMSO, 8 nM His-tagged bromodomain, 1 nM Europium-conjugated anti-His-tag antibody and 100 nM or 30 nM probe (for BDI or BDII, respectively) and compound concentration in the range of: 5 μM-85 pM for method A, 9.19 μM 150 pM for method B, 10 μM-169 pM for method C, 50 μM-16 nM for method D, and 0.92 μM-15 pM for method E.
After a one-hour equilibration at room temperature, TR-FRET ratios were determined using an Envision multilabel plate reader (Ex 340, Em 495/520).
TR-FRET data were normalized to the means of 24 no-compound controls (“high”) and 8 controls containing 1 μM un-labeled probe (“low”). Percent inhibition was plotted as a function of compound concentration and the data were fit with the 4 parameter logistic equation to obtain IC50s Inhibition constants (Ki) were calculated from the IC50s, probe Kd and probe concentration. Typical Z′ values were between 0.65 and 0.75. The minimum significant ratio was determined to evaluate assay reproducibility (Eastwood et al., (2006) J Biomol Screen, 11: 253-261). The MSR was determined to be 2.03 for BDI and 1.93 for BDII, and a moving MSR (last six run MSR overtime) for both BDI and BDII was typically <3.

BRD4 (BDII_E352-M457) = molecular target: T2, BRD4 (BDII_E352-M457) (Homo sapiens, UniProt O60885); assay: TR-FRET bromodomain binding assay, second bromodomain of BRD4; settings: His-tagged BD2, 30 nM Alexa647 probe; TR-FRET protocol A-E given per row
T2 construct: proliferation; Protocol; made in house
Protocol: as §1, §2, §3
For Assay methods A, C, and D: Compounds were then diluted 6:100 in assay buffer (20 mM Sodium Phosphate, pH 6.0, 50 mM NaCl, 1 mM Ethylenediaminetetraacetic acid, 0.01% Triton X-100, 1 mM DL-Dithiothreitol) to yield 3× working solutions. […] Twelve μL of this solution were added to the assay plate to reach a final volume of 18 μL.
TR-FRET data were normalized to the means of 24 no-compound controls (“high”) and 8 controls containing 1 μM un-labeled probe (“low”). Percent inhibition was plotted as a function of compound concentration and the data were fit with the 4 parameter logistic equation to obtain IC50s Inhibition constants (Ki) were calculated from the IC50s, probe Kd and probe concentration. Typical Z′ values were between 0.65 and 0.75.

Structure (SMILES)	Ki (BRD4 (BDI_K57-E168))	Ki (BRD4 (BDII_E352-M457))
Cn1cc(-c2cc(NS(C)(=O)=O)ccc2Oc2ccc(F)cc2F)c2cc[nH]c(=O)c21 [Example 2, N-[4-(2,4-difluorophenoxy)-3-(1-methyl-7-oxo-6,7-dihydro-1H-pyrrolo[2,3-c]pyridin-3-yl)phenyl]methanesulfonamide]	6.2 nM	13 nM
CCS(=O)(=O)Nc1ccc(Oc2ccc(F)cc2F)c(-c2cn(C)c3c(=O)[nH]c(CN4CCOCC4)cc23)c1 [Example 182, N-{4-(2,4-difluorophenoxy)-3-[1-methyl-5-(morpholin-4-ylmethyl)-7-oxo-6,7-dihydro-1H-pyrrolo[2,3-c]pyridin-3-yl]phenyl}ethanesulfonamide]	29.2 nM	99.9 nM
Cn1cc(-c2cc(NC(=O)CCCOc3ccccc3)ccc2Oc2ccc(F)cc2F)c2cc[nH]c(=O)c21 [Example 153, N-[4-(2,4-difluorophenoxy)-3-(1-methyl-7-oxo-6,7-dihydro-1H-pyrrolo[2,3-c]pyridin-3-yl)phenyl]-4-phenoxybutanamide]	321 nM	293 nM
Cc1noc(C)c1-c1cc2c(-c3cc(CS(C)(=O)=O)ccc3Oc3ccc(F)cc3F)cn(C)c2c(=O)[nH]1 [Example 94, 3-{2-(2,4-difluorophenoxy)-5-[(methylsulfonyl)methyl]phenyl}-5-(3,5-dimethyl-1,2-oxazol-4-yl)-1-methyl-1,6-dihydro-7H-pyrrolo[2,3-c]pyridin-7-one]	168 nM	1870 nM
COc1ccccc1CC(=O)Nc1ccc(Oc2ccc(F)cc2F)c(-c2cn(C)c3c(=O)[nH]ccc23)c1 [Example 149, N-[4-(2,4-difluorophenoxy)-3-(1-methyl-7-oxo-6,7-dihydro-1H-pyrrolo[2,3-c]pyridin-3-yl)phenyl]-2-(2-methoxyphenyl)acetamide]	41.6 nM	54 nM
CCS(=O)(=O)c1ccc(Oc2cccnc2)c(-c2cn(C)c3c(=O)[nH]ccc23)c1 [Example 81, 3-[5-(ethylsulfonyl)-2-(pyridin-3-yloxy)phenyl]-1-methyl-1,6-dihydro-7H-pyrrolo[2,3-c]pyridin-7-one]	81 nM	100 nM
Cn1cc(-c2cc(S(C)(=O)=O)ccc2OC2Cc3ccccc3C2)c2cc[nH]c(=O)c21 [Example 38, 3-[2-(2,3-dihydro-1H-inden-2-yloxy)-5-(methylsulfonyl)phenyl]-1-methyl-1,6-dihydro-7H-pyrrolo[2,3-c]pyridin-7-one]	90 nM	435 nM
CCS(=O)(=O)c1ccc(Oc2cncc(C)n2)c(-c2cn(C)c3c(=O)[nH]ccc23)c1 [Example 86, 3-{5-(ethylsulfonyl)-2-[(6-methylpyrazin-2-yl)oxy]phenyl}-1-methyl-1,6-dihydro-7H-pyrrolo[2,3-c]pyridin-7-one]	697 nM	764 nM
Cn1cc(-c2cc(S(C)(=O)=O)ccc2NCCC2CCCC2)c2cc[nH]c(=O)c21 [Example 72, 3-{2-[(2-cyclopentylethyl)amino]-5-(methylsulfonyl)phenyl}-1-methyl-1,6-dihydro-7H-pyrrolo[2,3-c]pyridin-7-one]	492 nM	967 nM
Cn1cc(-c2cc(NC(=O)c3ccc(COc4ccccc4)cc3)ccc2Oc2ccc(F)cc2F)c2cc[nH]c(=O)c21 [Example 156, N-[4-(2,4-difluorophenoxy)-3-(1-methyl-7-oxo-6,7-dihydro-1H-pyrrolo[2,3-c]pyridin-3-yl)phenyl]-4-(phenoxymethyl)benzamide]	598 nM	> 920 nM
Cn1cc(-c2cc(N)ccc2Oc2ccc(F)cc2F)c2cc[nH]c(=O)c21 [Example 146, 3-[5-amino-2-(2,4-difluorophenoxy)phenyl]-1-methyl-1,6-dihydro-7H-pyrrolo[2,3-c]pyridin-7-one]	25.3 nM	90.1 nM
Cn1cc(-c2cc(NCCC(C)(C)C)ccc2Oc2ccc(F)cc2F)c2cc[nH]c(=O)c21 [Example 174, 3-{2-(2,4-difluorophenoxy)-5-[(3,3-dimethylbutyl)amino]phenyl}-1-methyl-1,6-dihydro-7H-pyrrolo[2,3-c]pyridin-7-one]	57.5 nM	215 nM
Cn1cc(-c2cc(NS(C)(=O)=O)c(Oc3ccc(F)cc3F)cc2F)c2cc[nH]c(=O)c21 [Example 12, N-[2-(2,4-difluorophenoxy)-4-fluoro-5-(1-methyl-7-oxo-6,7-dihydro-1H-pyrrolo[2,3-c]pyridin-3-yl)phenyl]methanesulfonamide]	684 nM	1170 nM
CCS(=O)(=O)Nc1ccc(Oc2ccc(F)cc2F)c(-c2cn(C)c3c(=O)[nH]c(C(=O)N4CCC(O)CC4)cc23)c1 [Example 194, N-[4-(2,4-difluorophenoxy)-3-{5-[(4-hydroxypiperidin-1-yl)carbonyl]-1-methyl-7-oxo-6,7-dihydro-1H-pyrrolo[2,3-c]pyridin-3-yl]phenyl}ethanesulfonamide]	10.5 nM	68.5 nM
Cn1cc(-c2cc(NC(=O)Cn3cc(-c4ccccc4F)cn3)ccc2Oc2ccc(F)cc2F)c2cc[nH]c(=O)c21 [Example 165, N-[4-(2,4-difluorophenoxy)-3-(1-methyl-7-oxo-6,7-dihydro-1H-pyrrolo[2,3-c]pyridin-3-yl)phenyl]-2-[4-(2-fluorophenyl)-1H-pyrazol-1-yl]acetamide]	214 nM	105 nM
CCS(=O)(=O)c1ccc(Oc2cnc(C)cc2C)c(-c2cn(C)c3c(=O)[nH]ccc23)c1 [Example 75, 3-{2[(4,6-dimethylpyridin-3-yl)oxy]-5-(ethylsulfonyl)phenyl}-1-methyl-1,6-dihydro-7H-pyrrolo[2,3-c]pyridin-7-one]	131 nM	42 nM
CCS(=O)(=O)c1ccc(Oc2ccncc2)c(-c2cn(C)c3c(=O)[nH]ccc23)c1 [Example 74, 3-[5-(ethylsulfonyl)-2-(pyridin-4-yloxy)phenyl]-1-methyl-1,6-dihydro-7H-pyrrolo[2,3-c]pyridin-7-one]	> 2380 nM	388 nM
Cn1ccc2c(-c3cc(S(C)(=O)=O)ccc3OCC3CC3(F)F)cn(C)c2c1=O (stereo not drawn) [Example 43, 3-{2-[(2,2-difluorocyclopropyl)methoxy]-5-(methylsulfonyl)phenyl}-1,6-dimethyl-1,6-dihydro-7H-pyrrolo[2,3-c]pyridin-7-one]	2580 nM	2540 nM
Cn1cc(-c2cc(S(C)(=O)=O)ccc2OCCC23CC4CC(CC(C4)C2)C3)c2cc[nH]c(=O)c21 [Example 65]	416 nM	2640 nM
CCS(=O)(=O)Nc1ccc(Oc2ccc(F)cc2F)c(-c2cn(C)c3c(=O)[nH]c(C(=O)NCc4ccoc4)cc23)c1 [Example 201, 3-{2-(2,4-difluorophenoxy)-5-[(ethylsulfonyl)amino]phenyl}-N-(furan-3-ylmethyl)-1-methyl-7-oxo-6,7-dihydro-1H-pyrrolo[2,3-c]pyridine-5-carboxamide]	3.47 nM	11.4 nM
Cn1cc(-c2cc(S(C)(=O)=O)ccc2Oc2ccc(C(C)(C)C)cc2)c2cc[nH]c(=O)c21 [Example 62, 3-[2-(4-tert-butylphenoxy)-5-(methylsulfonyl)phenyl]-1-methyl-1,6-dihydro-7H-pyrrolo[2,3-c]pyridin-7-one]	357 nM	291 nM
